PubChem BioAssay (NCI)
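Tested at 5 concentrations; 48 h exposure; 96-well plates; endpoints linearly interpolated, else capped at highest concentration. At the TGI there is no net growth.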

Columns and labels:
Assay in all cases: NCI anticancer screen, dose series, 48 h
SF-295 CNS = tested on: SF-295 CNS
UO-31 renal = tested on: UO-31 renal
A549 NSCLC = tested on: A549 NSCLC
SR leukemia = tested on: SR leukemia
786-0 renal = tested on: 786-0 renal
CCRF-CEM leukemia = tested on: CCRF-CEM leukemia
NCI-H226 lung = tested on: NCI-H226 lung
NCI-H522 lung = tested on: NCI-H522 lung
HL-60(TB) leukemia = tested on: HL-60(TB) leukemia
HCC-2998 colon = tested on: HCC-2998 colon

Structure (SMILES)	TGI (SF-295 CNS)	TGI (UO-31 renal)	TGI (A549 NSCLC)	TGI (SR leukemia)	TGI (786-0 renal)	TGI (CCRF-CEM leukemia)	TGI (NCI-H226 lung)	TGI (NCI-H522 lung)	TGI (HL-60(TB) leukemia)	TGI (HCC-2998 colon)
COC(=O)c1cc(C#N)[nH]c1-c1cc(Br)cs1	24.7 µM	29.5 µM	31.7 µM	> 66.3 µM	48.7 µM	39.3 µM	49.4 µM	13.3 µM	38.5 µM	> 57.5 µM
Oc1[nH]c2ccccc2c1N=NC(=S)Nc1ccc(Cl)cc1	> 100 µM	> 100 µM	> 100 µM	> 100 µM	> 100 µM	> 100 µM	86.4 µM	> 100 µM	> 100 µM	> 100 µM
C[C@]12CC[C@@H]3c4cc(I)c(O)cc4CC[C@H]3[C@@H]1CC[C@@H]2O	16.4 µM	17.6 µM	25.1 µM	13.7 µM	18.4 µM	22.4 µM	33.4 µM	17.8 µM	> 33.4 µM	21 µM
O=c1[nH]nc(Cc2ccccc2)n1/N=C/c1ccncc1	> 100 µM	> 100 µM	> 100 µM	> 100 µM	> 100 µM	> 100 µM	> 100 µM	> 100 µM	> 100 µM	> 100 µM
CCOC(=O)C1CCC(=O)N1C(=O)c1ccccc1 (stereo not given)	> 100 µM	> 100 µM	> 100 µM	> 100 µM	> 100 µM	> 100 µM	> 100 µM	> 100 µM	> 100 µM	> 100 µM
CC(C)OC(=O)OCSc1ccccc1N=Cc1cccc([N+](=O)[O-])c1	> 10 µM	> 10 µM	> 10 µM	> 10 µM	> 10 µM	> 10 µM	> 10 µM	> 10 µM	> 10 µM	> 10 µM
COc1cc2ccc1OCc1cccc(n1)COc1ccc(cc1OC)C=Nc1ccc(cc1)N=C2	> 100 µM	> 100 µM	> 100 µM	> 100 µM	> 100 µM	> 100 µM	> 100 µM	> 100 µM	> 100 µM	> 100 µM
